compound: CC1=C(C(=NN1)C)CC2=C(C3=C(S2)N(C(=O)N(C3=O)C)CC(C)C)C(=O)N4C[C@@H](CO4)O + O=C(c1cc(Cc2n[nH]c(=O)c3ccccc23)ccc1F)N1CCN(C(=O)C2CC2)CC1 [Olaparib] (partner 8 µM); experiment: relative viability (nuclei count vs DMSO), 5 days (fraction); higher = more cells survive; conditions: first compound 0.0025 µM
Procedure, shortened: (§1)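 For relative viability, nuclei counts in treated wells were divided by those in vehicle wells. Lung cancer cell lines had been pin-tool dosed in 1536-well plates the day after seeding and cultured for 5 days, then fixed and stained in one step (final 0.05% Triton X-100, 1% formaldehyde, 1 ug/ml Hoechst) and imaged at 4×. Doses were one drug alone or a fixed anchor-drug dose plus five library-drug doses (not always all listed) in √10 steps, and values are duplicate-plate medians.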

Cell Line	relative viability
LC-2-ad	0.748
NCI-H1944	0.455
NCI-H1975	0.814
RERF-LC-KJ	0.958
ABC-1	0.487
NCI-H358	0.596
NCI-H650	0.415
PC-3 [JPC-3]	1.19

same assay, conditions: first compound 0.007906 µM

Cell Line	relative viability
LC-2-ad	0.659
NCI-H1944	0.427
NCI-H1975	0.906
RERF-LC-KJ	0.832
ABC-1	0.519
NCI-H358	0.557
NCI-H650	0.45
PC-3 [JPC-3]	0.794

same assay, conditions: first compound 0.025 µM

Cell Line	relative viability
LC-2-ad	0.702
NCI-H1944	0.423
NCI-H1975	0.839
RERF-LC-KJ	1.04
NCI-H358	0.625
NCI-H650	0.345
PC-3 [JPC-3]	1.14

same assay, conditions: first compound 0.07906 µM

Cell Line	relative viability
LC-2-ad	0.658
NCI-H1944	0.373
NCI-H1975	0.77
RERF-LC-KJ	0.926
ABC-1	0.485
NCI-H358	0.605
NCI-H650	0.41
PC-3 [JPC-3]	1.07

same assay, conditions: first compound 0.25 µM

Cell Line	relative viability
LC-2-ad	0.782
NCI-H1944	0.423
NCI-H1975	0.875
RERF-LC-KJ	0.883
ABC-1	0.517
NCI-H358	0.684
NCI-H650	0.454
PC-3 [JPC-3]	1.3

compound: Cc1ccccc1C(C(=O)NC1CCCCC1)N(C(=O)Cn1ccnc1C)c1cccc(F)c1 [IDH-C35] + NC(=O)Nc1cc(-c2cccc(F)c2)sc1C(=O)N[C@H]1CCCNC1 [AZD7762] (partner 0.2 µM); experiment: as above; conditions: first compound 0.08 µM
Procedure, shortened: as §1

Cell Line	relative viability
LC-2-ad	0.878
NCI-H1944	0.587
NCI-H1975	0.755
RERF-LC-KJ	1.03
ABC-1	0.779
NCI-H358	0.609
NCI-H650	1.04
PC-3 [JPC-3]	0.75

same assay, conditions: first compound 0.253 µM

Cell Line	relative viability
LC-2-ad	0.846
NCI-H1944	0.731
NCI-H1975	0.75
RERF-LC-KJ	1.03
ABC-1	0.874
NCI-H358	0.544
NCI-H650	1.26
PC-3 [JPC-3]	0.867

same assay, conditions: first compound 0.8 µM

Cell Line	relative viability
LC-2-ad	0.793
NCI-H1944	0.492
NCI-H1975	0.766
RERF-LC-KJ	0.982
ABC-1	0.739
NCI-H358	0.477
NCI-H650	1.13
PC-3 [JPC-3]	0.86

same assay, conditions: first compound 2.53 µM

Cell Line	relative viability
LC-2-ad	0.837
NCI-H1944	0.462
NCI-H1975	0.818
RERF-LC-KJ	0.794
ABC-1	0.744
NCI-H358	0.492
PC-3 [JPC-3]	0.844

same assay, conditions: first compound 8 µM

Cell Line	relative viability
LC-2-ad	0.804
NCI-H1944	0.491
NCI-H1975	0.793
RERF-LC-KJ	1.01
ABC-1	1.01
NCI-H358	0.426
NCI-H650	0.97
PC-3 [JPC-3]	0.78

compound: Cc1ccccc1C(C(=O)NC1CCCCC1)N(C(=O)Cn1ccnc1C)c1cccc(F)c1 [IDH-C35] + CS(=O)(=O)N1CCN(Cc2cc3nc(-c4cccc5[nH]ncc45)nc(N4CCOCC4)c3s2)CC1 [Pictilisib] (partner 1 µM); experiment: as above; conditions: first compound 0.08 µM
Procedure, shortened: as §1

Cell Line	relative viability
LC-2-ad	0.595
NCI-H1944	0.38
NCI-H1975	0.293
RERF-LC-KJ	0.53
ABC-1	0.675
NCI-H358	0.408
NCI-H650	0.926
PC-3 [JPC-3]	0.802

same assay, conditions: first compound 0.253 µM

Cell Line	relative viability
LC-2-ad	0.472
NCI-H1944	0.364
NCI-H1975	0.322
RERF-LC-KJ	0.671
ABC-1	0.667
NCI-H358	0.33
NCI-H650	0.863
PC-3 [JPC-3]	0.772

same assay, conditions: first compound 0.8 µM

Cell Line	relative viability
LC-2-ad	0.439
NCI-H1944	0.323
NCI-H1975	0.288
RERF-LC-KJ	0.529
ABC-1	0.617
NCI-H358	0.317
NCI-H650	0.847
PC-3 [JPC-3]	0.687

same assay, conditions: first compound 2.53 µM

Cell Line	relative viability
LC-2-ad	0.441
NCI-H1944	0.343
NCI-H1975	0.319
RERF-LC-KJ	0.554
ABC-1	0.984
NCI-H358	0.366
PC-3 [JPC-3]	0.844

same assay, conditions: first compound 8 µM

Cell Line	relative viability
LC-2-ad	0.455
NCI-H1944	0.346
NCI-H1975	0.326
RERF-LC-KJ	0.509
ABC-1	0.908
NCI-H358	0.385
NCI-H650	0.851
PC-3 [JPC-3]	0.703

compound: Cc1ccccc1C(C(=O)NC1CCCCC1)N(C(=O)Cn1ccnc1C)c1cccc(F)c1 [IDH-C35] + Nc1ncn([C@H]2C[C@H](O)[C@@H](CO)O2)c(=O)n1 [Decitabine] (partner 2 µM); experiment: as above; conditions: first compound 0.08 µM
Procedure, shortened: as §1

Cell Line	relative viability
LC-2-ad	0.73
NCI-H1944	0.43
NCI-H1975	0.442
RERF-LC-KJ	0.727
ABC-1	0.838
NCI-H358	0.216
NCI-H650	0.304
PC-3 [JPC-3]	0.843

same assay, conditions: first compound 0.253 µM

Cell Line	relative viability
LC-2-ad	0.839
NCI-H1944	0.416
NCI-H1975	0.403
RERF-LC-KJ	0.69
ABC-1	1.12
NCI-H358	0.192
NCI-H650	0.339
PC-3 [JPC-3]	0.795

same assay, conditions: first compound 0.8 µM

Cell Line	relative viability
LC-2-ad	0.847
NCI-H1944	0.43
NCI-H1975	0.379
RERF-LC-KJ	0.753
ABC-1	0.975
NCI-H358	0.234
NCI-H650	0.371
PC-3 [JPC-3]	0.864

same assay, conditions: first compound 2.53 µM

Cell Line	relative viability
LC-2-ad	0.764
NCI-H1944	0.416
NCI-H1975	0.438
RERF-LC-KJ	0.809
ABC-1	0.98
NCI-H358	0.211
PC-3 [JPC-3]	0.806

same assay, conditions: first compound 8 µM

Cell Line	relative viability
LC-2-ad	0.782
NCI-H1944	0.437
NCI-H1975	0.364
RERF-LC-KJ	0.681
ABC-1	0.95
NCI-H358	0.213
NCI-H650	0.313
PC-3 [JPC-3]	0.807

From the supplement of paper PMC10307832
